ChEMBL document CHEMBL1124404, “Conformationally restricted and conformationally defined tyramine analogues as inhibitors of phenylethanolamine N-methyltransferase” (J Med Chem, 1989)

Experiments:
[1] = target: T1, Phenylethanolamine N-methyltransferase (Bos taurus, UniProt P10938); experiment: In vitro inhibitory activity against bovine phenylethanolamine N-methyl-transferase
T1 sequence (P10938 whole entry): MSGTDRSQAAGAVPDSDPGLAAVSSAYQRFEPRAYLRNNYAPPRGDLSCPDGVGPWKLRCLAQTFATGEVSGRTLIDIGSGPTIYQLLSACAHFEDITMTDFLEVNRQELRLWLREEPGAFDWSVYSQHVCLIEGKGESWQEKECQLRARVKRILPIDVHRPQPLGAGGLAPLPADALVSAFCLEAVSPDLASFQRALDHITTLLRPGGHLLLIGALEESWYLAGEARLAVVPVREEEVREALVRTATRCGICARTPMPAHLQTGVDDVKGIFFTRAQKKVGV

[2] = target: T1, Phenylethanolamine N-methyltransferase; experiment: The compound was tested for In vitro inhibitory activity against Phenylethanolamine N-Methyltransferase (PNMT)
[3] = target: T1, Phenylethanolamine N-methyltransferase; experiment: In vitro inhibitory activity against Phenylethanolamine N-methyl-transferase (PNMT)

SMILES	Ki [1]	other results
COc1ccc2c(c1)CC1(N)CCC2C1 (stereo unspecified)	1410 µM	–
NCCc1ccc(O)cc1 [TYRAMINE]	–	Ki [2]: 294 µM
NC12CCC(C1)c1ccc(O)cc1C2 (stereo unspecified)	1270 µM	–
N[C@@H]1CC2CC1c1c(O)cccc12 (stereo partly specified)	> 3000 µM	–
NC1CCc2ccccc2C1 (stereo unspecified)	6.8 µM	–
NC1CCc2c(O)cccc2C1 (stereo unspecified)	21 µM	–
COc1cccc2c1CC(N)CC2 (stereo unspecified)	144 µM	–
COc1cccc2c1C1CC(N)C2C1 (stereo unspecified)	> 2000 µM	–
NC1CC2CC1c1cccc(O)c12 (stereo unspecified)	> 10000 µM	–
NC12CCC(C1)c1cc(O)ccc1C2 (stereo unspecified)	111 µM	–
COc1ccc2c(c1)C1CC2CC1N (stereo unspecified)	> 2000 µM	–
NC1CCc2cc(O)ccc2C1 (stereo unspecified)	4.7 µM	–
COc1ccc2c(c1)C1CCC(N)(C2)C1 (stereo unspecified)	389 µM	–
COc1ccc2c(c1)CCC(N)C2 (stereo unspecified)	34 µM	–
COc1cccc2c1C1CC2CC1N (stereo unspecified)	> 2000 µM	–
COc1cccc2c1CCC(N)C2 (stereo unspecified)	157 µM	–
NCCc1ccccc1 [PHENETHYLAMINE]	854 µM	–
NC12CCC(C1)c1ccccc1C2 (stereo unspecified)	206 µM	–
NC1CCc2cccc(O)c2C1 (stereo unspecified)	39 µM	–
NCCc1cccc(O)c1	–	Ki [2]: 1250 µM
NC12CCC(C1)c1c(O)cccc1C2 (stereo unspecified)	3470 µM	–
COc1cccc2c1C1CCC(N)(C2)C1 (stereo unspecified)	8420 µM	–
COc1ccc2c(c1)CC(N)CC2 (stereo unspecified)	228 µM	–
NC1CC2CC1c1ccccc12 (stereo unspecified)	479 µM	–
NC1CC2CC1c1ccc(O)cc12 (stereo unspecified)	304 µM	–
NC1CCc2ccc(O)cc2C1 (stereo unspecified)	–	Ki [3]: 76 µM
